Laboratory results from ChEMBL document CHEMBL4507280 (2021).

Experiments:
[1] = target: Serine/threonine-protein kinase LATS1 (Homo sapiens) (UniProt O95835); settings: Compound concentration 1000.0 nM
[2] = test system: Epidermal growth factor receptor (Homo sapiens), P00533 [L861Q]; settings: Compound concentration 1000.0 nM
[3] = target: Serine/threonine-protein kinase 4 (Homo sapiens) (UniProt Q13043); settings: Compound concentration 1000.0 nM
[4] = target: Serine/threonine-protein kinase 38 (Homo sapiens) (UniProt Q15208); settings: Compound concentration 1000.0 nM
[5] = target: Phosphatidylinositol 3-kinase catalytic subunit type 3 (Homo sapiens) (UniProt Q8NEB9); settings: Compound concentration 1000.0 nM
[6] = target: Ribosomal protein S6 kinase alpha-4 (Homo sapiens) (UniProt O75676); settings: Compound concentration 1000.0 nM
[7] = target: Alpha-2B adrenergic receptor (Homo sapiens) (UniProt P18089); settings: Compound concentration 10.0 uM
[8] = target: Mitogen-activated protein kinase 6 (Homo sapiens) (UniProt Q16659); settings: Compound concentration 1000.0 nM
[9] = target: Serine/threonine-protein kinase Nek2 (Homo sapiens) (UniProt P51955); settings: Compound concentration 1000.0 nM
[10] = target: Kappa-type opioid receptor (Homo sapiens) (UniProt P41145); settings: Compound concentration 10.0 uM
[11] = target: Mitogen-activated protein kinase kinase kinase kinase 3 (Homo sapiens) (UniProt Q8IVH8); settings: Compound concentration 1000.0 nM
[12] = target: Calcium/calmodulin-dependent protein kinase type II subunit delta (Homo sapiens) (UniProt Q13557); settings: Compound concentration 1000.0 nM
[13] = target: Dual specificity tyrosine-phosphorylation-regulated kinase 1A (Homo sapiens) (UniProt Q13627); settings: Compound concentration 1000.0 nM
[14] = target: Cyclin-dependent kinase 7 (Homo sapiens) (UniProt P50613); settings: Compound concentration 1000.0 nM
[15] = target: Serine/threonine-protein kinase PAK 3 (Homo sapiens) (UniProt O75914); settings: Compound concentration 1000.0 nM
[16] = target: Mitogen-activated protein kinase kinase kinase kinase 5 (Homo sapiens) (UniProt Q9Y4K4); settings: Compound concentration 1000.0 nM
[17] = target: Mitogen-activated protein kinase 3 (Homo sapiens) (UniProt P27361); settings: Compound concentration 1000.0 nM
[18] = target: Ribosomal protein S6 kinase alpha-5 (Homo sapiens) (UniProt O75582); settings: Compound concentration 1000.0 nM
[19] = target: Cyclin-dependent kinase-like 2 (Homo sapiens) (UniProt Q92772); settings: Compound concentration 1000.0 nM
[20] = target: Serine/threonine-protein kinase pim-3 (Homo sapiens) (UniProt Q86V86); settings: Compound concentration 1000.0 nM
[21] = target: G protein-coupled receptor kinase 3 (Homo sapiens) (UniProt P35626); settings: Compound concentration 1000.0 nM
[22] = target: Mitogen-activated protein kinase kinase kinase 9 (Homo sapiens) (UniProt P80192); settings: Compound concentration 1000.0 nM
[23] = target: Sodium-dependent noradrenaline transporter (Homo sapiens) (UniProt P23975); settings: Compound concentration 10.0 uM
[24] = test system: Phosphatidylinositol 4,5-bisphosphate 3-kinase catalytic subunit alpha isoform (Homo sapiens), P42336 [E542K]; settings: Compound concentration 1000.0 nM
[25] = target: Dual specificity mitogen-activated protein kinase kinase 7 (Homo sapiens) (UniProt O14733); settings: Compound concentration 1000.0 nM
[26] = target: Serine/threonine-protein kinase Nek11 (Homo sapiens) (UniProt Q8NG66); settings: Compound concentration 1000.0 nM
[27] = target: Serine/threonine-protein kinase TBK1 (Homo sapiens) (UniProt Q9UHD2); settings: Compound concentration 1000.0 nM
[28] = target: Glycogen synthase kinase-3 alpha (Homo sapiens) (UniProt P49840); settings: Compound concentration 1000.0 nM
[29] = target: Cyclin-dependent kinase 9 (Homo sapiens) (UniProt P50750); settings: Compound concentration 1000.0 nM
[30] = target: Mitogen-activated protein kinase kinase kinase 20 (Homo sapiens) (UniProt Q9NYL2); settings: Compound concentration 1000.0 nM
[31] = test system: Tyrosine-protein kinase ABL1 (Homo sapiens), P00519 [F317L]; settings: Compound concentration 1000.0 nM
[32] = target: Dual specificity protein kinase CLK2 (Homo sapiens) (UniProt P49760); settings: Compound concentration 1000.0 nM
[33] = target: Mitogen-activated protein kinase 7 (Homo sapiens) (UniProt Q13164); settings: Compound concentration 1000.0 nM
[34] = target: 5-hydroxytryptamine receptor 1E (Homo sapiens) (UniProt P28566); settings: Compound concentration 10.0 uM
[35] = target: Dual specificity protein kinase TTK (Homo sapiens) (UniProt P33981); settings: Compound concentration 1000.0 nM
[36] = test system: Mast/stem cell growth factor receptor Kit (Homo sapiens), P10721 [V559D]; settings: Compound concentration 1000.0 nM
[37] = target: Insulin-like growth factor 1 receptor (Homo sapiens) (UniProt P08069); settings: Compound concentration 1000.0 nM
[38] = target: Serine/threonine-protein kinase WNK4 (Homo sapiens) (UniProt Q96J92); settings: Compound concentration 1000.0 nM
[39] = target: Microtubule-associated serine/threonine-protein kinase 1 (Homo sapiens) (UniProt Q9Y2H9); settings: Compound concentration 1000.0 nM
[40] = target: Serine/threonine-protein kinase 17B (Homo sapiens) (UniProt O94768); settings: Compound concentration 1000.0 nM
[41] = target: Tyrosine-protein kinase ABL1 (Homo sapiens) (UniProt P00519); settings: Compound concentration 1000.0 nM
[42] = target: RAC-beta serine/threonine-protein kinase (Homo sapiens) (UniProt P31751); settings: Compound concentration 1000.0 nM
[43] = target: Serine/threonine-protein kinase ULK2 (Homo sapiens) (UniProt Q8IYT8); settings: Compound concentration 1000.0 nM
[44] = target: Myosin light chain kinase family member 4 (Homo sapiens) (UniProt Q86YV6); settings: Compound concentration 1000.0 nM
[45] = test system: Tyrosine-protein kinase ABL1 (Homo sapiens), P00519 [Q252H]; settings: Compound concentration 1000.0 nM

Sequence of RAC-beta serine/threonine-protein kinase (Homo sapiens) (P31751 whole entry): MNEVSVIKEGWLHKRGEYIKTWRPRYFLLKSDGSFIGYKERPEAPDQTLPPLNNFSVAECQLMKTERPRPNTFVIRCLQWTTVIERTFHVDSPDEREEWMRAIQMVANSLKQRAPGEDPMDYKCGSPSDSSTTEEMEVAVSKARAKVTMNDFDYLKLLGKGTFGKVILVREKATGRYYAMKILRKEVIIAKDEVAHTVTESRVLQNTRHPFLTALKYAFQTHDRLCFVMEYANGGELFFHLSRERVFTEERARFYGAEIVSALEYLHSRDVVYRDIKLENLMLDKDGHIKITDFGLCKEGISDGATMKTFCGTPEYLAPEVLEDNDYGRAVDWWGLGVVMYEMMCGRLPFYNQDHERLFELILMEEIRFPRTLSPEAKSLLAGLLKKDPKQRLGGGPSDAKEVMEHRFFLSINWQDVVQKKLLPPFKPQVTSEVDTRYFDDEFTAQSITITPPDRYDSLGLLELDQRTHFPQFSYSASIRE
Sequence of Alpha-2B adrenergic receptor (Homo sapiens) (P18089 whole entry): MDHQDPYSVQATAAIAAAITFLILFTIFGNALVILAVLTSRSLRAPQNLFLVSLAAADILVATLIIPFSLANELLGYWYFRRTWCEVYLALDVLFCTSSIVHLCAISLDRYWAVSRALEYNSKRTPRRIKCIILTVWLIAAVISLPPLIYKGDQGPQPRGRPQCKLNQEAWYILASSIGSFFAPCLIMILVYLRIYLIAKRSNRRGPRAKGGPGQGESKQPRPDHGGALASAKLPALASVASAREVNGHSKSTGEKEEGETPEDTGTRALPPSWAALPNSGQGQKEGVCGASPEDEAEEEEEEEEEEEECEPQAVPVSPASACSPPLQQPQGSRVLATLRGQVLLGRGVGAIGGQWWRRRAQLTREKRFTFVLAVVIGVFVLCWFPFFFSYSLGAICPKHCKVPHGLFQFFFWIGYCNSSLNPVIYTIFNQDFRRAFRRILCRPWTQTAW
Sequence of Mitogen-activated protein kinase 6 (Homo sapiens) (Q16659 whole entry): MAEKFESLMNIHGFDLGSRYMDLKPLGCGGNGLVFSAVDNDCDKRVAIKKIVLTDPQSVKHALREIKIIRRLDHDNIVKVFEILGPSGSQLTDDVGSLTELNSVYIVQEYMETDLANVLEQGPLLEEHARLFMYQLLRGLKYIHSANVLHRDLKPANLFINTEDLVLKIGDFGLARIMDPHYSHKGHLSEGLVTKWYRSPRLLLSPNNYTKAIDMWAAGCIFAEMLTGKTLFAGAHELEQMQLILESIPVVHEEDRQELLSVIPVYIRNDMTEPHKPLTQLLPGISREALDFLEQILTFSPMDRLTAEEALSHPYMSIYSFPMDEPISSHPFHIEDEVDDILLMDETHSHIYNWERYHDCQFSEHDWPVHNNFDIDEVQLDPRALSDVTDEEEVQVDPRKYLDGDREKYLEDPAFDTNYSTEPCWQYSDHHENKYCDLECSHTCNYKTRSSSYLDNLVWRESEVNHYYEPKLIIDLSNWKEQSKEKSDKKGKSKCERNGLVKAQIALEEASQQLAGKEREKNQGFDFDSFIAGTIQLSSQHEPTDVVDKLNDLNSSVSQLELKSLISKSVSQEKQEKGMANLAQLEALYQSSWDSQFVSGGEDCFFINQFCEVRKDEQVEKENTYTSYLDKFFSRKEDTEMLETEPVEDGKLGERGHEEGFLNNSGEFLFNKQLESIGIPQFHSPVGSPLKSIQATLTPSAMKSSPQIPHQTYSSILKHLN
Sequence of Serine/threonine-protein kinase WNK4 (Homo sapiens) (Q96J92 whole entry): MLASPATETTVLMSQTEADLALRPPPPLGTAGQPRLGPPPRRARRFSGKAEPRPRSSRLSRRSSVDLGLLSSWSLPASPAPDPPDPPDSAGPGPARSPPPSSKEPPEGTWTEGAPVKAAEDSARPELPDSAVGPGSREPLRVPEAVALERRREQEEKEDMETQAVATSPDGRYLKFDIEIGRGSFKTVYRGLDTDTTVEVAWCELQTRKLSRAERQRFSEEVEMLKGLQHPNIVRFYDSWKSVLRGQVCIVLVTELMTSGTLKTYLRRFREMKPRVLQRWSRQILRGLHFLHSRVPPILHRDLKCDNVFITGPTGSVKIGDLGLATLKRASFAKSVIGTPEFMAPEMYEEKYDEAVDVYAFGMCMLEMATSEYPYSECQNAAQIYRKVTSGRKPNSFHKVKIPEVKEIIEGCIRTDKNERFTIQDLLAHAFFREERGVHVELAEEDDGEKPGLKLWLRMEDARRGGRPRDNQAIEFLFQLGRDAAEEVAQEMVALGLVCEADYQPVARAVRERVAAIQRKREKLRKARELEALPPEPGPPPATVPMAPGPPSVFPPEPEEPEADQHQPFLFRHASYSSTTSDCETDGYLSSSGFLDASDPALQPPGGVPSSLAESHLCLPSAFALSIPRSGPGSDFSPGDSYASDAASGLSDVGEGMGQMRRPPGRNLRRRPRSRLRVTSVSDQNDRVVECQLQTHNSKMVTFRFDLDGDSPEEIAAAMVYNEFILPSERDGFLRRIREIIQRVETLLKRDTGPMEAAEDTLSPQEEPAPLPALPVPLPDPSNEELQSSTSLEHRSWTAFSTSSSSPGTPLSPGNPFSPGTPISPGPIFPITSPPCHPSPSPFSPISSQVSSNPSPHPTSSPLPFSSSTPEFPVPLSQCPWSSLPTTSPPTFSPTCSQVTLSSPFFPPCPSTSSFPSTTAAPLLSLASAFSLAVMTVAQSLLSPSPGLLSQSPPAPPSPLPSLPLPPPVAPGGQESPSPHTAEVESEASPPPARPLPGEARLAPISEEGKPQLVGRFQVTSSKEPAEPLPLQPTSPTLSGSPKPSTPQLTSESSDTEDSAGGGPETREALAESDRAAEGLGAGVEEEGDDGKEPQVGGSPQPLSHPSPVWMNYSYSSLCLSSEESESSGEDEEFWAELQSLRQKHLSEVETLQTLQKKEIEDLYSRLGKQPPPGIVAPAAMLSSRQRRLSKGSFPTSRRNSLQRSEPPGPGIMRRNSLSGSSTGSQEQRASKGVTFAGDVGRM
Sequence of Serine/threonine-protein kinase LATS1 (Homo sapiens) (O95835 whole entry): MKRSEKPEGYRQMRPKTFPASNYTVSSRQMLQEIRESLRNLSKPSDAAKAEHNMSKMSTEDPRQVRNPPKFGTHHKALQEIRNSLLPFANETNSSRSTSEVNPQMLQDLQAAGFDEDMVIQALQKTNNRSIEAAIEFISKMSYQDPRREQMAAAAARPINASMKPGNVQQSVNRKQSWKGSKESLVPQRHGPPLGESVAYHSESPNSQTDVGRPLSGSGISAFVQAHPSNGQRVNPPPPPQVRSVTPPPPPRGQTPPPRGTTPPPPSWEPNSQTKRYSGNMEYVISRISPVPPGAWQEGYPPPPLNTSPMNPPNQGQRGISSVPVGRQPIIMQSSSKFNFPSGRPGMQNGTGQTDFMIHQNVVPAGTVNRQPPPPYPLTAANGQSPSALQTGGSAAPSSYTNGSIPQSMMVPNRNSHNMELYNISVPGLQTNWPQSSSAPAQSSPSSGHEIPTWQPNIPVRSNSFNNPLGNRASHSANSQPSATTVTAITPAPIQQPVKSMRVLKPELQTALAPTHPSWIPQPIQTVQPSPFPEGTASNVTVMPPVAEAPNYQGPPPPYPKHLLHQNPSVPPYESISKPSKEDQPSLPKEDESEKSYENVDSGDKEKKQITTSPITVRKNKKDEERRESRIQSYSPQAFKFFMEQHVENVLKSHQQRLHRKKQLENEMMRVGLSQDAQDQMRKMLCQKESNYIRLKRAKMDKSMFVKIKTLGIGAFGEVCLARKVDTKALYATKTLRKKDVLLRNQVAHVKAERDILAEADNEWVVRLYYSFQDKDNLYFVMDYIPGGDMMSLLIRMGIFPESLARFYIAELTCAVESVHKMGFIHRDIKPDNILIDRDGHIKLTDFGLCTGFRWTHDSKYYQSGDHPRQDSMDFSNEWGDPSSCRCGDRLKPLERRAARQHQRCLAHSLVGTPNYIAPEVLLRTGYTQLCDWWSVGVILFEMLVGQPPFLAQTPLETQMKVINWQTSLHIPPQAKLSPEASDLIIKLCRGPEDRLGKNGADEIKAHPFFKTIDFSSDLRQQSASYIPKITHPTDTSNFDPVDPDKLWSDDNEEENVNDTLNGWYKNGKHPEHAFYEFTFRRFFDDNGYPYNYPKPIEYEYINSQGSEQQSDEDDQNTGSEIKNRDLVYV
Sequence of Serine/threonine-protein kinase 4 (Homo sapiens) (Q13043 whole entry): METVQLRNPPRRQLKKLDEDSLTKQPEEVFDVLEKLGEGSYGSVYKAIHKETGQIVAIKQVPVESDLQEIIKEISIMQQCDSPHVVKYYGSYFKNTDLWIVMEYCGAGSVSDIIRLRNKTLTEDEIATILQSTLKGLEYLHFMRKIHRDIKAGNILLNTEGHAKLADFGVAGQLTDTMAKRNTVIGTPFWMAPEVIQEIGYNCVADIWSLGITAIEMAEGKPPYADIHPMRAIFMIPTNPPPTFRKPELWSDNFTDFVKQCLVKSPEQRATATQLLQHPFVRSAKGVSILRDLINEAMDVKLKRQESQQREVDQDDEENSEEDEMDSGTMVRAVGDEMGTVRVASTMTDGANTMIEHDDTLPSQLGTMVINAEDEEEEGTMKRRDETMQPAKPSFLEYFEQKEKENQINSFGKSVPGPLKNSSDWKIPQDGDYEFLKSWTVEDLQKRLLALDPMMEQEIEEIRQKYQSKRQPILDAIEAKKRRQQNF

CCC(=O)N[C@H]1CC[C@@H](C(=O)N(C)c2ccc(-c3nc4ccccc4o3)cc2)C1 [BI 99179]
residual activity [1]: 48% | residual activity [2]: 100% | residual activity [3]: 100% | residual activity [4]: 77% | residual activity [5]: 89% | residual activity [6]: 79% | inhibition [7]: 5.31% | residual activity [8]: 100% | residual activity [9]: 100% | inhibition [10]: -6.54% | residual activity [11]: 85% | residual activity [12]: 91% | residual activity [13]: 63% | residual activity [14]: 79% | residual activity [15]: 98% | residual activity [16]: 100% | residual activity [17]: 100% | residual activity [18]: 68% | residual activity [19]: 100% | residual activity [20]: 100% | residual activity [21]: 80% | residual activity [22]: 100% | inhibition [23]: 2.94% | residual activity [24]: 77% | residual activity [25]: 82% | residual activity [26]: 86% | residual activity [27]: 78% | residual activity [28]: 100% | residual activity [29]: 95% | residual activity [30]: 89% | residual activity [31]: 86% | residual activity [32]: 95% | residual activity [33]: 78% | inhibition [34]: -3.14% | residual activity [35]: 100% | residual activity [36]: 94% | residual activity [37]: 100% | residual activity [38]: 100% | residual activity [39]: 100% | residual activity [40]: 84% | residual activity [41]: 72% | residual activity [42]: 89% | residual activity [43]: 75% | residual activity [44]: 100% | residual activity [45]: 78%

CCC(=O)N[C@@H]1CC[C@H](C(=O)N(C)c2ccc(-c3nc4ccccc4o3)cc2)C1 [BI 99990]
residual activity [1]: 58% | residual activity [2]: 95% | residual activity [3]: 90% | residual activity [4]: 80% | residual activity [5]: 100% | residual activity [6]: 100% | inhibition [7]: 7.05% | residual activity [8]: 100% | residual activity [9]: 100% | inhibition [10]: 20.4% | residual activity [11]: 100% | residual activity [12]: 100% | residual activity [13]: 98% | residual activity [14]: 85% | residual activity [15]: 98% | residual activity [16]: 91% | residual activity [17]: 100% | residual activity [18]: 97% | residual activity [19]: 100% | residual activity [20]: 96% | residual activity [21]: 100% | residual activity [22]: 100% | inhibition [23]: 14.5% | residual activity [24]: 84% | residual activity [25]: 98% | residual activity [26]: 100% | residual activity [27]: 65% | residual activity [28]: 84% | residual activity [29]: 100% | residual activity [30]: 78% | residual activity [31]: 92% | residual activity [32]: 100% | residual activity [33]: 100% | inhibition [34]: -5.68% | residual activity [35]: 100% | residual activity [36]: 100% | residual activity [37]: 100% | residual activity [38]: 100% | residual activity [39]: 94% | residual activity [40]: 99% | residual activity [41]: 96% | residual activity [42]: 72% | residual activity [43]: 100% | residual activity [44]: 100% | residual activity [45]: 87%
